From US10494366B2, “Pesticidally active amide heterocyclic derivatives with sulphur containing substituents” (Syngenta Participations AG, priority 2014, dated 2019)

Tests used:
Format in all cases: in vivo
[1] = tested on: Myzus persicae (green peach aphid); test: Example B5: Myzus persicae, sprayed sunflower leaf discs; details: foliar, 144 h, application rate 200 ppm, aphid population of mixed ages, 6 days after infestation
Description: Sunflower leaf discs were placed on agar in a 24-well microtiter plate and sprayed with aqueous test solutions prepared from 10,000 ppm DMSO stock solutions. After drying, the leaf discs were infested with an aphid population of mixed ages. The samples were assessed for mortality 6 days after infestation.

[2] = tested on: Euschistus heros (neotropical brown stink bug); test: Example B6: Euschistus heros, sprayed soybean leaf; details: 120 h, application rate 200 ppm, N-2 nymphs, 5 days after infestation
From the text: Soybean leaf on agar in 24-well microtiter plates were sprayed with aqueous test solutions prepared from 10,000 ppm DMSO stock solutions. After drying the leaf were infested with N-2 nymphs.

[3] = tested on: Plutella xylostella (diamond back moth); test: Example B3: Plutella xylostella, treated artificial diet; details: 120 h, application rate 200 ppm, L2 larvae, 5 days after infestation, read-out: effect in at least one of the two categories (mortality or growth inhibition)
Description: (§1) 24-well microtiter plates with artificial diet were treated with aqueous test solutions prepared from 10,000 ppm DMSO stock solutions by pipetting. After drying, the plates were infested with L2 larvae (10 to 15 per well). The samples were assessed for mortality and growth inhibition in comparison to untreated samples 5 days after infestation.

[4] = tested on: Diabrotica balteata (corn root worm); test: Example B4: Diabrotica balteata, sprayed maize sprouts; details: 96 h, application rate 200 ppm, L2 larvae, 4 days after infestation, read-out: effect in at least one of the two categories (mortality or growth inhibition)
Description: as §1, with “Maize sprouts, placed on an agar layer in 24-well” for “24-well”, “plates” for “plates with artificial diet”, “spraying.” for “pipetting.”, “(6” for “(10”, “10” for “15”, “4” for “5”

[5] = tested on: Spodoptera littoralis (Egyptian cotton leaf worm); test: Example B1: Spodoptera littoralis, sprayed cotton leaf discs; details: foliar, 72 h, application rate 200 ppm, L1 larvae, 3 days after infestation, read-out: control in at least one of the three categories (mortality, anti-feedancy or growth inhibition)
Description: Cotton leaf discs were placed on agar in 24-well microtiter plates and sprayed with aqueous test solutions prepared from 10,000 ppm DMSO stock solutions. After drying the leaf discs were infested with five L1 larvae. The samples were assessed for mortality, anti-feedant effect, and growth inhibition in comparison to untreated samples 3 days after infestation. Control of Spodoptera littoralis by a test sample is when at least one of mortality, anti-feedant effect, and growth inhibition is higher than the untreated sample.

[6] = tested on: Spodoptera littoralis (Egyptian cotton leaf worm); test: Example B2: Spodoptera littoralis, systemic test via lettuce roots in agar; details: 144 h, application rate 12.5 ppm, Spodoptera eggs, 6 days after infestation, read-out: control in at least one of the three categories (mortality, anti-feedancy or growth inhibition)
From the text: Test compounds were applied by pipette from 10,000 ppm DMSO stock solutions into 24-well plates and mixed with agar. Lettuce seeds were placed on the agar and the multi well plate was closed by another plate which contains also agar. After 7 days the roots have absorbed the compound and the lettuce has grown into the lid plate. The lettuce leafs were now cut off into the lid plate. Spodoptera eggs were pipetted through a plastic stencil on a humid gel blotting paper and the plate closed with it. The samples were assessed for mortality, anti-feedant effect and growth inhibition in comparison to untreated samples 6 days after infestation.
The following compounds gave an effect of at least 80% control in at least one of the three categories (mortality, anti-feedancy or growth inhibition) at an application rate of 12.5 ppm: P2, P3, P8, P9, P11 and P17, P19, P20, P22, P23, P25, P26, P28, P30, P31, P32, P33, P40, P42, P43, P44, P45, P46, P47, P48, P49, P50, P51, P52, P53, P54, P60 and P61.

CCS(=O)(=O)c1cc(-c2ccc(C(F)(F)F)cc2)cnc1C(=O)/N=c1\sc(C(F)(F)F)nn1C [Compound P5]
≥ 80%: mortality at 200 ppm [1] | mortality at 200 ppm [2] | percent effect (mortality or growth inhibition) at 200 ppm [3] | percent effect (mortality or growth inhibition) at 200 ppm [4] | percent control (mortality, anti-feedant effect or growth inhibition) at 200 ppm [5]

CCS(=O)(=O)c1cc(-c2ccccc2)cnc1C(=O)/N=c1\sc(C(F)(F)F)nn1C [Compound P6, (N)-3-ethylsulfonyl-N-[3-methyl-5-(trifluoromethyl)-1,3,4-thiadiazol-2-ylidene]-5-phenyl-pyridine-2-carboxamide]
≥ 80%: mortality at 200 ppm [1] | mortality at 200 ppm [2] | percent effect (mortality or growth inhibition) at 200 ppm [3] | percent effect (mortality or growth inhibition) at 200 ppm [4] | percent control (mortality, anti-feedant effect or growth inhibition) at 200 ppm [5]

CCS(=O)(=O)c1cc(-c2ccc(C(F)(F)F)cc2)cnc1C(=O)N=c1ccc(SC(F)(F)F)cn1C [Compound P16]
≥ 80%: mortality at 200 ppm [1] | mortality at 200 ppm [2] | percent effect (mortality or growth inhibition) at 200 ppm [3] | percent effect (mortality or growth inhibition) at 200 ppm [4] | percent control (mortality, anti-feedant effect or growth inhibition) at 200 ppm [5]

CCS(=O)(=O)c1cc(C2CC2)cnc1C(=O)/N=c1\ccc(SC(F)(F)F)cn1C [Compound P18, (N)-5-cyclopropyl-3-ethylsulfonyl-N-[1-methyl-5-(trifluoromethylsulfanyl)-2-pyridylidene]pyridine-2-carboxamide]
≥ 80%: mortality at 200 ppm [1] | mortality at 200 ppm [2] | percent effect (mortality or growth inhibition) at 200 ppm [3] | percent effect (mortality or growth inhibition) at 200 ppm [4] | percent control (mortality, anti-feedant effect or growth inhibition) at 200 ppm [5]

CCS(=O)(=O)c1cc(-c2ccc(C#N)cc2)cnc1C(=O)/N=c1\sc(C(F)(F)F)nn1C [Compound P28]
≥ 80%: mortality at 200 ppm [2] | percent effect (mortality or growth inhibition) at 200 ppm [3] | percent control (mortality, anti-feedant effect or growth inhibition) at 12.5 ppm [6] | percent effect (mortality or growth inhibition) at 200 ppm [4] | percent control (mortality, anti-feedant effect or growth inhibition) at 200 ppm [5]

CCS(=O)(=O)c1cc(-c2ccc(F)cc2)cnc1C(=O)/N=c1\sc(C(F)(F)F)nn1C [Compound P32]
≥ 80%: mortality at 200 ppm [2] | percent effect (mortality or growth inhibition) at 200 ppm [3] | percent control (mortality, anti-feedant effect or growth inhibition) at 12.5 ppm [6] | percent effect (mortality or growth inhibition) at 200 ppm [4] | percent control (mortality, anti-feedant effect or growth inhibition) at 200 ppm [5]

CCS(=O)(=O)c1cc(-c2cc(F)ccc2F)cnc1C(=O)/N=c1\sc(C(F)(F)F)nn1C [Compound P33]
≥ 80%: mortality at 200 ppm [2] | percent effect (mortality or growth inhibition) at 200 ppm [3] | percent control (mortality, anti-feedant effect or growth inhibition) at 12.5 ppm [6] | percent effect (mortality or growth inhibition) at 200 ppm [4] | percent control (mortality, anti-feedant effect or growth inhibition) at 200 ppm [5]

CCS(=O)(=O)c1cc(-c2ncc(C(F)(F)F)cn2)cnc1C(=O)/N=c1\sc(C(F)(F)F)nn1C [Compound P43]
≥ 80%: mortality at 200 ppm [2] | percent effect (mortality or growth inhibition) at 200 ppm [3] | percent control (mortality, anti-feedant effect or growth inhibition) at 12.5 ppm [6] | percent effect (mortality or growth inhibition) at 200 ppm [4] | percent control (mortality, anti-feedant effect or growth inhibition) at 200 ppm [5]

CCS(=O)(=O)c1cc(-c2cccc(C(F)(F)F)n2)cnc1C(=O)/N=c1\sc(C(F)(F)F)nn1C [Compound P44]
≥ 80%: mortality at 200 ppm [2] | percent effect (mortality or growth inhibition) at 200 ppm [3] | percent control (mortality, anti-feedant effect or growth inhibition) at 12.5 ppm [6] | percent effect (mortality or growth inhibition) at 200 ppm [4] | percent control (mortality, anti-feedant effect or growth inhibition) at 200 ppm [5]

CCS(=O)(=O)c1cc(-c2ncc(C(F)(F)F)cc2F)cnc1C(=O)/N=c1\sc(C(F)(F)F)nn1C [Compound P47]
≥ 80%: mortality at 200 ppm [2] | percent effect (mortality or growth inhibition) at 200 ppm [3] | percent control (mortality, anti-feedant effect or growth inhibition) at 12.5 ppm [6] | percent effect (mortality or growth inhibition) at 200 ppm [4] | percent control (mortality, anti-feedant effect or growth inhibition) at 200 ppm [5]

CCS(=O)(=O)c1cc(-c2cccc(C#N)n2)cnc1C(=O)/N=c1\sc(C(F)(F)F)nn1C [Compound P48]
≥ 80%: mortality at 200 ppm [2] | percent effect (mortality or growth inhibition) at 200 ppm [3] | percent control (mortality, anti-feedant effect or growth inhibition) at 12.5 ppm [6] | percent effect (mortality or growth inhibition) at 200 ppm [4] | percent control (mortality, anti-feedant effect or growth inhibition) at 200 ppm [5]

CCS(=O)(=O)c1cc(-c2ccc(Cl)cn2)cnc1C(=O)/N=c1\sc(C(F)(F)F)nn1C [Compound P49]
≥ 80%: mortality at 200 ppm [2] | percent effect (mortality or growth inhibition) at 200 ppm [3] | percent control (mortality, anti-feedant effect or growth inhibition) at 12.5 ppm [6] | percent effect (mortality or growth inhibition) at 200 ppm [4] | percent control (mortality, anti-feedant effect or growth inhibition) at 200 ppm [5]

CCS(=O)(=O)c1cc(-c2ccc(C(F)(F)F)cn2)cnc1C(=O)/N=c1\sc(C(F)(F)F)nn1C [Compound P50]
≥ 80%: mortality at 200 ppm [2] | percent effect (mortality or growth inhibition) at 200 ppm [3] | percent control (mortality, anti-feedant effect or growth inhibition) at 12.5 ppm [6] | percent effect (mortality or growth inhibition) at 200 ppm [4] | percent control (mortality, anti-feedant effect or growth inhibition) at 200 ppm [5]

CCS(=O)(=O)c1cc(-c2ccc(C#N)nc2)cnc1C(=O)/N=c1\sc(C(F)(F)F)nn1C [Compound P52]
≥ 80%: mortality at 200 ppm [2] | percent effect (mortality or growth inhibition) at 200 ppm [3] | percent control (mortality, anti-feedant effect or growth inhibition) at 12.5 ppm [6] | percent effect (mortality or growth inhibition) at 200 ppm [4] | percent control (mortality, anti-feedant effect or growth inhibition) at 200 ppm [5]

CCS(=O)(=O)c1cc(-c2cncc(C(F)(F)F)c2)cnc1C(=O)/N=c1\sc(C(F)(F)F)nn1C [Compound P53]
≥ 80%: mortality at 200 ppm [1] | percent effect (mortality or growth inhibition) at 200 ppm [3] | percent control (mortality, anti-feedant effect or growth inhibition) at 12.5 ppm [6] | percent effect (mortality or growth inhibition) at 200 ppm [4] | percent control (mortality, anti-feedant effect or growth inhibition) at 200 ppm [5]

CCS(=O)(=O)c1cc(-c2cnc(C(F)(F)F)s2)cnc1C(=O)/N=c1\sc(C(F)(F)F)nn1C [Compound P56]
≥ 80%: mortality at 200 ppm [1] | percent effect (mortality or growth inhibition) at 200 ppm [3] | percent effect (mortality or growth inhibition) at 200 ppm [4] | percent control (mortality, anti-feedant effect or growth inhibition) at 200 ppm [5]

CCS(=O)(=O)c1cc(-c2nc(C(F)(F)F)cs2)cnc1C(=O)/N=c1\sc(C(F)(F)F)nn1C [Compound P60]
≥ 80%: mortality at 200 ppm [1] | percent effect (mortality or growth inhibition) at 200 ppm [3] | percent control (mortality, anti-feedant effect or growth inhibition) at 12.5 ppm [6] | percent effect (mortality or growth inhibition) at 200 ppm [4] | percent control (mortality, anti-feedant effect or growth inhibition) at 200 ppm [5]

CCS(=O)(=O)c1cc(-c2cncc(C(F)(F)F)n2)cnc1C(=O)/N=c1\sc(C(F)(F)F)nn1C [Compound P61]
≥ 80%: mortality at 200 ppm [2] | percent effect (mortality or growth inhibition) at 200 ppm [3] | percent control (mortality, anti-feedant effect or growth inhibition) at 12.5 ppm [6] | percent effect (mortality or growth inhibition) at 200 ppm [4] | percent control (mortality, anti-feedant effect or growth inhibition) at 200 ppm [5]

CCS(=O)(=O)c1cc(-c2cccc(Cl)n2)cnc1C(=O)/N=c1\sc(C(F)(F)F)nn1C [Compound P64, (N)-5-(6-chloro-2-pyridyl)-3-ethylsulfonyl-N-[3-methyl-5-(trifluoromethyl)-1,3,4-thiadiazol-2-ylidene]pyridine-2-carboxamide]
≥ 80%: mortality at 200 ppm [1] | mortality at 200 ppm [2] | percent effect (mortality or growth inhibition) at 200 ppm [3] | percent effect (mortality or growth inhibition) at 200 ppm [4] | percent control (mortality, anti-feedant effect or growth inhibition) at 200 ppm [5]

CCS(=O)(=O)c1cc(-c2ncc(F)cc2F)cnc1C(=O)/N=c1\sc(C(F)(F)F)nn1C [Compound P66]
≥ 80%: mortality at 200 ppm [1] | mortality at 200 ppm [2] | percent effect (mortality or growth inhibition) at 200 ppm [3] | percent effect (mortality or growth inhibition) at 200 ppm [4] | percent control (mortality, anti-feedant effect or growth inhibition) at 200 ppm [5]
